Patent US9290440B2, “Bicyclic compound” (TOA EIYO LTD., priority 2012, dated 2016)
Read-outs that look alike come from different tables or passages of the source.

Columns and labels:
[1] = molecular target: T1, human sGC α subunit and β subunit (Homo sapiens, UniProt Q02153); assay: Maximum effect of sGC activating function (Ca2+ fluorescence in CHO-K1 cells expressing human sGC and mouse CNGA2); type: cell-based; conditions: increase ratio of sGC activity vs control solution at 10 μmol/L test compound
T1 construct: expressed in transfected cells
T1 sequence (Q02153 1-619): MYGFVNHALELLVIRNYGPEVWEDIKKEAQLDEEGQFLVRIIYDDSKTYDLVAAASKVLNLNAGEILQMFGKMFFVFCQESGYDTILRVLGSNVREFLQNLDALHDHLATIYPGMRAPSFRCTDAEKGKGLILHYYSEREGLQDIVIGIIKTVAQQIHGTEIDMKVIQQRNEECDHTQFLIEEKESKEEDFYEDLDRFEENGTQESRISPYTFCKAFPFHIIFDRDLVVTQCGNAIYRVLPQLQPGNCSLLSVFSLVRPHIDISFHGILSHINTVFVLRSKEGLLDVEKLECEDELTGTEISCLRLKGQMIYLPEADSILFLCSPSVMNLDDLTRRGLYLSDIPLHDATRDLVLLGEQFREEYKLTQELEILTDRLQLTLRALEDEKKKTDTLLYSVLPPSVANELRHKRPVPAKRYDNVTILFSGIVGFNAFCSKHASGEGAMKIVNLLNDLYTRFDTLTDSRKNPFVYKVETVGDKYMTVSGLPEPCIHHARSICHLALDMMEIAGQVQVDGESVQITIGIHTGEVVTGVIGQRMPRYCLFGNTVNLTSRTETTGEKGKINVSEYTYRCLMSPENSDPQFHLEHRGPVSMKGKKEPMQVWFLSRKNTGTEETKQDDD
T1 sequence (Q02108 1-690 partner): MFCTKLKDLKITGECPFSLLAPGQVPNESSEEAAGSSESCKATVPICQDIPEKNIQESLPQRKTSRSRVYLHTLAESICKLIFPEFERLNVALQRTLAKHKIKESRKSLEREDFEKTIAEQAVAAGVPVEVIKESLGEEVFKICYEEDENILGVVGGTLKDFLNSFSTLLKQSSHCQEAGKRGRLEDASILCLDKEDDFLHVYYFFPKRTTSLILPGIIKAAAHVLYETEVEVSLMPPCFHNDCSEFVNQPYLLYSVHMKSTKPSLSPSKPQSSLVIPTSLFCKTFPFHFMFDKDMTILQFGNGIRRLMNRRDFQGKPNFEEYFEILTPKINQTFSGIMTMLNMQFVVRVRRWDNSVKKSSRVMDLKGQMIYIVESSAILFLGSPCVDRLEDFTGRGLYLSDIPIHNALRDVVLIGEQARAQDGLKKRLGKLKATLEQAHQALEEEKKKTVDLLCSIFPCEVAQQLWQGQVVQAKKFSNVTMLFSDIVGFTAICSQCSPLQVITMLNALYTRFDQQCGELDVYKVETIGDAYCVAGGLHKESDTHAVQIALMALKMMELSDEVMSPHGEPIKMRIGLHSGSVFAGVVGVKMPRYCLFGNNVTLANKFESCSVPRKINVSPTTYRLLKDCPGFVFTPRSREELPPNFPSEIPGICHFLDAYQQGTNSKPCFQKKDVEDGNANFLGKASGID
Method: (§1) For the assay, Chinese hamster ovary cells (CHO-K1 cells) in which human sGC α subunit and β subunit and mouse cyclic nucleotide gated channel (CNGA2) are stably expressed were used.
(§2) CHO-K1 cells in which human sGC and mouse CNGA2 are stably expressed were cultured at 37° C. in F-12 medium containing 10% (v/v) fetal bovine serum (FBS), penicillin (100 U/mL), streptomycin (100 μg/mL), G418 (250 μg/mL), and zeocin (250 μg/mL). The cells were suspended in the culture medium and seeded onto a 96-well plate, and then cultured at 37° C. for 24 hours. After washing with assay buffer 1 (140 mmol/L sodium chloride, 5 mmol/L potassium chloride, 0.5 mmol/L magnesium chloride, 0.01 mmol/L calcium chloride, 10 mmol/L glucose, 0.4 mmol/L magnesium sulfate, 10 mmol/L 4-(2-hydroxyethyl)piperazin-1-ylethane sulfonic acid, and 125 μmol/L sulfinpyrazone, pH 7.4), an indicator solution in which FURA2-AM as a fluorescent Ca^2+ indicator is dissolved at concentration of 5 μmol/L in assay buffer 1 was added followed by culture for 60 minutes at 37° C. The indicator solution was removed. After washing with assay buffer 1, the test compound solution was added and incubated for 10 minutes at room temperature. The plate was placed in a fluorometer (Flex Station II, Molecular Devices, LLC), and then the intracellular calcium concentration was measured as fluorescence intensity ratio which is obtained from each excitation wavelength (excitation wavelength of 340 nm and 380 nm and detection wavelength of 510 nm).
(§3) The test compound solution was prepared by dissolving each of the test compounds in DMSO to a concentration of 10 mmol/L, and then adding the assay buffer 2 (140 mmol/L sodium chloride, 5 mmol/L potassium chloride, 0.5 mmol/L magnesium chloride, 1 mmol/L calcium chloride, 10 mmol/L glucose, 0.4 mmol/L magnesium sulfate, 10 mmol/L 4-(2-hydroxyethyl)piperazin-1-ylethane sulfonic acid, 125 μmol/L sulfinpyrazone, 100 μmol/L isobutylmethylxanthine, 10 μmol/L 1H-[1,2,4]-oxadiazole[4,3-a]quinoxalin-1-one (hereinbelow, ODQ), pH 7.4) for dilution to have test concentration of 10 μmol/L. For the evaluation of a case in which ODQ is not contained, the same evaluation was performed except that ODQ is excluded from assay buffer 2. As a control solution, a DMSO solution was used instead of the test compound solution.
(§4) The activity of the test compound corresponds to the increase ratio (%) of the sGC activity at the time of adding the test compound solution with respect to the sGC activity at the time of adding the control solution, and it was calculated by dividing the fluorescence intensity ratio at the time of adding the test compound by the fluorescence intensity ratio of the control solution and subtracting the sGC activity (100%) at the time of adding the control solution.
In this assay, intracellular cGMP concentration increases as sGC is activated, and according to opening of CNGA2 following the increase of cGMP, intracellular Ca^2+ concentration increases. Thus, SGC activation can be measured by following the change in intracellular Ca^2+ concentration. […] Thus, in the absence of ODQ, the maximum sGC activating function including the heme-dependent activation can be evaluated while the heme-independent sGC activating function can be evaluated in the presence of ODQ.

[2] = molecular target: T1, human sGC α subunit and β subunit; assay: Heme-independent property of sGC activating function (EC50 ratio, CHO-K1 cells expressing human sGC and mouse CNGA2); type: cell-based; conditions: EC50 in the absence of ODQ divided by EC50 in the presence of ODQ, sGC activation
Method: as §1, §2, §3, §4
For the representative compounds, activity was measured in the same manner as Test Example 1 at each test concentration of 0.0001, 0.001, 0.003, 0.01, 0.03, 0.1, 1, and 10 μmol/L.
The degree of heme-independent property of each test compound with regard to sGC activating function was obtained by dividing, for EC50 measured from the concentration-activation curve which has been established from the above, EC50 in the absence of ODQ by EC50 in the presence of ODQ. Specifically, the smaller the EC50 ratio is, the less the change in sGC activating function is, the change in the function being caused by the presence or absence of ODQ, and thus it is found to be more heme-independent.
EC50 value was obtained by measuring the activity of each compound to be tested at concentrations of 0.0001, 0.001, 0.003, 0.01, 0.03, 0.1, 1, and 10 μmol/L and performing the calculation using four-parameter logistics model using Assay Explorer (Accelrys).

[3] = ODQ not contained, read-out: Emax (%) ODQ− (Heme-dependent)
[4] = with 10 μmol/L ODQ, read-out: Emax (%) ODQ+ (Heme-independent)

## O=C(O)CCCCN(CCc1ccccc1OCc1ccccc1Cl)C1CCCc2cc(C(=O)O)ccc21 (stereo not drawn) [Example 13, 5-{N-(4-Carboxybutyl)-N-[2-[2-(2-chlorobenzyloxyl)phenyl]ethyl]amino}-5,6,7,8-tetrahydronaphthalene-2-carboxylic acid]
[1]; [3]
  Emax at 10 µM: 64.2%
[1]; [4]
  Emax at 10 µM: 87.2%

## O=C(O)CCCCN(CCc1ccccc1OCc1ccc(CCc2ccccc2)cc1)C1CCCCc2cc(C(=O)O)ccc21 (stereo not drawn) [Example 3, 5-{N-(4-Carboxybutyl)-N-[2-[2-[4-(2-phenylethyl)benzyloxy]phenyl]ethyl]amino}-6,7,8,9-tetrahydro-5H-benzocycloheptene-2-carboxylic acid]
[1]; [3]
  Emax at 10 µM: 102%
[1]; [4]
  Emax at 10 µM: 111%
[2]
  EC50 Ratio (ODQ−/ODQ+): 2.54

## O=C(O)CCCCN(CCc1ccccc1OCc1ccc(/C=C/C2CCCCC2)cc1)C1CCCc2cc(C(=O)O)ccc21 (stereo not drawn) [Example 23, 5-{N-(4-Carboxybutyl)-N-[2-[2-[4-((E)-2-cyclohexylethenyl)benzyloxy]phenyl]ethyl]amino}-5,6,7,8-tetrahydronaphthalene-2-carboxylic acid]
[1]; [3]
  Emax at 10 µM: 126%
[1]; [4]
  Emax at 10 µM: 104%
[2]
  EC50 Ratio (ODQ−/ODQ+): 1.15

## O=C(O)CCCCN(CCc1ccccc1OCc1ccc(OCc2ccccc2)cc1)C1CCCc2cc(C(=O)O)ccc21 (stereo not drawn) [Example 14, 5-{N-[2-[2-(4-Benzyloxybenzyloxyl)phenyl]ethyl]-N-(4-carboxybutyl)amino}-5,6,7,8-tetrahydronaphthalene-2-carboxylic acid]
[1]; [3]
  Emax at 10 µM: 99.1%
[1]; [4]
  Emax at 10 µM: 101%
[2]
  EC50 Ratio (ODQ−/ODQ+): 1.73

## O=C(O)CCCCN(CCc1ccccc1OCc1ccc(CCC2CCCCC2)cc1)C1CCCc2cc(C(=O)O)ccc21 (stereo not drawn) [Example 24, 5-{N-(4-Carboxybutyl)-N-[2-[2-[4-(2-cyclohexylethyl)benzyloxy]phenyl]ethyl]amino}-5,6,7,8-tetrahydronaphthalene-2-carboxylic acid]
[1]; [3]
  Emax at 10 µM: 135%
[1]; [4]
  Emax at 10 µM: 114%

## O=C(O)CCCCN(CCc1ccccc1OCc1ccc(COc2ccccc2)cc1)C1CCCc2cc(C(=O)O)ccc21 (stereo not drawn) [Example 16, 5-{N-(4-Carboxybutyl)-N-[2-[2-(4-phenoxymethylbenzyloxy)phenyl]ethyl]amino}-5,6,7,8-tetrahydronaphthalene-2-carboxylic acid]
[1]; [3]
  Emax at 10 µM: 116%
[1]; [4]
  Emax at 10 µM: 97.5%

## O=C(O)CCCCN(CCc1ccccc1OCc1ccc(C#CC2CCCCC2)cc1)C1CCCc2cc(C(=O)O)ccc21 (stereo not drawn) [Example 22, 5-{N-(4-Carboxybutyl)-N-[2-[2-(4-cyclohexylethynylbenzyloxy)phenyl]ethyl]amino}-5,6,7,8-tetrahydronaphthalene-2-carboxylic acid]
[1]; [3]
  Emax at 10 µM: 108%
[1]; [4]
  Emax at 10 µM: 100%

## O=C(O)CCCCN(CCc1ccccc1OCc1ccc(CSc2ccccc2)cc1)C1CCCc2cc(C(=O)O)ccc21 (stereo not drawn) [Example 17, 5-{N-(4-Carboxybutyl)-N-[2-[2-(4-phenylsulfanylmethylbenzyloxy)phenyl]ethyl]amino}-5,6,7,8-tetrahydronaphthalene-2-carboxylic acid]
[1]; [3]
  Emax at 10 µM: 115%
[1]; [4]
  Emax at 10 µM: 91.8%

## CC(C)(C)c1cccc(COc2ccccc2CCN(CCCCC(=O)O)C2CCCc3cc(C(=O)O)ccc32)c1 (stereo not drawn) [Example 41, 5-{N-[2-[2-(3-tert-Butylbenzyloxy)phenyl]ethyl]-N-(4-carboxybutyl)amino}-5,6,7,8-tetrahydronaphthalene-2-carboxylic acid]
[1]; [3]
  Emax at 10 µM: 109%
[1]; [4]
  Emax at 10 µM: 140%

## O=C(O)CCCCN(CCc1ccccc1OCc1ccc(CCc2ccccc2)cc1)C1CCCc2cc(C(=O)O)ccc21 (stereo not drawn) [Example 2, 5-{N-(4-Carboxybutyl)-N-[2-[2-[4-(2-phenylethyl)benzyloxy]phenyl]ethyl]amino}-5,6,7,8-tetrahydronaphthalene-2-carboxylic acid]
[1]; [3]
  Emax at 10 µM: 97.5%
[1]; [4]
  Emax at 10 µM: 109%
[2]
  EC50 Ratio (ODQ−/ODQ+): 2.67

## O=C(O)CCCCN(CCc1ccccc1OCc1ccc(CCc2ccccc2)cc1)C1CCSc2cc(C(=O)O)ccc21 (stereo not drawn) [Example 5, 4-{N-(4-Carboxybutyl)-N-[2-[2-[4-(2-phenylethyl)benzyloxy]phenyl]ethyl]amino}thiochromane-7-carboxylic acid]
[1]; [3]
  Emax at 10 µM: 84.5%
[1]; [4]
  Emax at 10 µM: 86.9%

## C#Cc1ccc(COc2ccccc2CCN(CCCCC(=O)O)C2CCCc3cc(C(=O)O)ccc32)cc1 (stereo not drawn) [Example 19, 5-{N-(4-Carboxybutyl)-N-[2-[2-(4-ethynylbenzyloxy)phenyl]ethyl]amino}-5,6,7,8-tetrahydronaphthalene-2-carboxylic acid]
[1]; [3]
  Emax at 10 µM: 88.7%
[1]; [4]
  Emax at 10 µM: 88%

## O=C(O)CCCCN(CCc1ccccc1OC[C@H]1CC[C@H](CCc2ccccc2)CC1)C1CCCc2cc(C(=O)O)ccc21 (stereo partly drawn) [Example 26, 5-{N-(4-Carboxybutyl)-N-[2-[2-[trans-4-(2-phenylethyl)cyclohexylmethoxy]phenyl]ethyl]amino}-5,6,7,8-tetrahydronaphthalene-2-carboxylic acid]
[1]; [3]
  Emax at 10 µM: 119%
[1]; [4]
  Emax at 10 µM: 86.9%
